Like-named read-outs stand apart in the source and are kept apart here.
How the values were obtained:
[1] = target: T1, hCA IX (Homo sapiens, UniProt Q16790); assay: CA inhibition assay, 4-nitrophenyl acetate (4-NPA) esterase assay; format: biochemical; settings: errors ±5–10% of the reported values
T1 construct: purchased Shanghai Jining Biological

[2] = target: T2, hCA II (Homo sapiens, UniProt P00918); assay: CA inhibition assay, 4-nitrophenyl acetate (4-NPA) esterase assay; format: biochemical; settings: errors ±5–10% of the reported values
T2 construct: purchased Shanghai Jining Biological

[3] = test system: MDA-MB-231 cancer cells; assay: MTT anti-proliferative assay; format: cell-based; settings: Homo sapiens, 24 h
Experimental: (§5) The median growth-inhibitory concentration (IC50) in the treated cells was compared to that of untreated controls. Cells were cultured under normoxic and hypoxic conditions to evaluate the effects of the compounds on cancer cell viability.
(§6) The cell cultures were passaged once every 2–3 days.
(§7) The 3-(4,5-dimethylthiazol-2-yl)-2,5-diphenyltetrazolium bromide (MTT) assay was used to measure the cell viability. Cells were planted into 96-well plates (4 × 10^3 cells per well) and cultured in media containing different concentrations of compounds. […] The supernatant was then discarded, and 150 μL of DMSO was added to each well, followed by gentle shaking. The absorbance value at 570 nm was measured using an EL808 microplate reader (Bio-TEK Instrument, Winooski, VT, USA).

[4] = test system: HepG2 cancer cells; assay: MTT anti-proliferative assay; format: cell-based; settings: Homo sapiens, 24 h
Experimental: as §5, §6, §7

[5] = test system: MCF-7 cell line; assay: Mitochondrial membrane potential assay (JC-1 staining); format: cell-based; settings: MCF-7, 20 μM, 48 h
Experimental: (§1) The present study investigated the involvement of mitochondria in compound-5-induced apoptosis by JC-1 staining. Red fluorescence indicates JC-1 aggregates, and green fluorescence indicates membrane potential leading to an increase in JC-1 monomers.
(§2) A mitochondrial membrane potential assay kit (Beyotime Co., Nantong, China) was used to measure the mitochondrial membrane potential with a JC-1 fluorescent probe. […] The cells were then fixed with 4% paraformaldehyde and stained with 5 mg/L JC-1 at 37 °C for 1 h. Fluorescent images were acquired using a fluorescence microscope (Olympus IX81, Olympus, Tokyo, Japan).

[6] = test system: MDA-MB-231 cell line; assay: as above; format: cell-based; settings: MDA-MB-231, 20 μM, 48 h
Experimental: as §1, §2

[7] = test system: HepG2 cell line; assay: as above; format: cell-based; settings: HepG2, 20 μM, 48 h
Experimental: as §1, §2

[8] = test system: MCF-7 cancer cells; assay: MTT anti-proliferative assay; format: cell-based; settings: Homo sapiens, MCF7, 24 h
Experimental: as §5, §6, §7

[9] = test system: HepG2 cells; assay: Annexin V-FITC/propidium iodide analysis of apoptosis; format: cell-based; settings: HepG2, 24 h incubation
Experimental: (§3) Annexin V-FITC/propidium iodide analysis of apoptosis assays were conducted to evaluate the effect of 5c on apoptosis in the MDA-MB-231, MCF-7, and HepG2 cancer cell lines. As shown in Table 3 and Figure 4, a significant increase in the percentage of apoptotic cells (containing early and late apoptosis percentages) and a notable decrease in cell viability were observed after incubation with compound 5c for 24 h.
(§4) Cells were cultured in 6-well plates and treated with the compounds for 24 h. Approximately 1 × 10^5 cells were collected and suspended in binding buffer. Apoptosis was analyzed using an AV/PI apoptosis detection kit (Beyotime Institute of Biotechnology, Shanghai, China) with a flow cytometer (BD Bioscience, Franklin Lakes, NJ, USA).

[10] = test system: MDA-MB-231 cells; assay: as above; format: cell-based; settings: MDA-MB-231, 24 h incubation
Experimental: as §3, §4

[11] = test system: MCF-7 cells; assay: as above; format: cell-based; settings: MCF-7, 24 h incubation
Experimental: as §3, §4

[12] = hypoxic (0.5% O2), read-out: IC50 MDA-MB-231 Hypo
[13] = normoxic, read-out: IC50 MDA-MB-231 Normo
[14] = hypoxic (0.5% O2), read-out: IC50 HepG2 Hypo
[15] = normoxic, read-out: IC50 HepG2 Normo
[16] = hypoxic (0.5% O2), read-out: IC50 MCF-7 Hypo
[17] = normoxic, read-out: IC50 MCF-7 Normo

Row | IC50 [1] | melting point | IC50 [2] | SMILES | other results
1 | 194 nM | 338 to 338.5 °C | 296 nM | O=C(O)c1ccc(NC(=O)c2ccc3c(c2)C(=O)c2ccccc2C3=O)cc1 [Compound 6a, 4-(9,10-Dioxo-9,10-Dihydroanthracene-2-Carboxamido)Benzoic Acid] | 
2 | 166 nM | 274 to 274.6 °C | 274 nM | O=C(O)c1cccc(NC(=O)c2ccc3c(c2)C(=O)c2ccccc2C3=O)c1 [Compound 6b, (9,10-Dioxo-9,10-Dihydroanthracene-2-Carboxamido)Benzoic Acid] | 
3 | 34.9 nM | 341 to 341.3 °C | 68.3 nM | NS(=O)(=O)c1ccc(NC(=O)c2ccc3c(c2)C(=O)c2ccccc2C3=O)cc1 [Compound 6c, 9,10-Dioxo-N-(4-Sulfamoylphenyl)-9,10-Dihydroanthracene-2-Carboxamide] | IC50 [3, 12]: 61.6 ± 5.13 µM; IC50 [3, 13]: 56.3 ± 4.19 µM; IC50 [4, 14]: 62.8 ± 5.52 µM; IC50 [4, 15]: 68.8 ± 4.17 µM; IC50 [8, 16]: 47 ± 4.01 µM; IC50 [8, 17]: 50.4 ± 4.73 µM
4 | 55.9 nM | 283 to 283.2 °C | 91.2 nM | NS(=O)(=O)c1cccc(NC(=O)c2ccc3c(c2)C(=O)c2ccccc2C3=O)c1 [Compound 6d, 9,10-Dioxo-N-(3-Sulfamoylphenyl)-9,10-Dihydroanthracene-2-Carboxamide] | 
5 | 168 nM | 266 to 266.5 °C |  | CC(=O)c1ccc(NC(=O)c2ccc3c(c2)C(=O)c2ccccc2C3=O)cc1 [Compound 6e, N-(4-Acetylphenyl)-9,10-Dioxo-9,10-Dihydroanthracene-2-Carboxamide] | 
6 | 30.1 nM |  | 61.8 nM | NS(=O)(=O)c1ccc(CCNC(=O)c2ccc3c(c2)C(=O)c2ccccc2C3=O)cc1 [Compound 6h, 9,10-Dioxo-N-(4-Sulfamoylphenethyl)-9,10-Dihydroanthracene-2-Carboxamide] | IC50 [3, 12]: 50.4 ± 4.27 µM; IC50 [3, 13]: 54.2 ± 4.87 µM; IC50 [4, 14]: 54.3 ± 5.15 µM; IC50 [4, 15]: 58.2 ± 5.45 µM; IC50 [8, 16]: 30.3 ± 3.14 µM; IC50 [8, 17]: 41.4 ± 2.22 µM
7 | 110 nM | 273 to 273.8 °C | 172 nM | CNS(=O)(=O)c1ccc(NC(=O)c2ccc3c(c2)C(=O)c2ccccc2C3=O)cc1 [Compound 6i, N-(4-(N-Methylsulfamoyl)Phenyl)-9,10-Dioxo-9,10-Dihydroanthracene-2-Carboxamide] | 
8 | 140 nM | 304 to 304.3 °C | 170 nM | CC(=O)NS(=O)(=O)c1ccc(NC(=O)c2ccc3c(c2)C(=O)c2ccccc2C3=O)cc1 [Compound 6k, N-(4-(N-Acetylsulfamoyl)Phenyl)-9,10-Dioxo-9,10-Dihydroanthracene-2-Carboxamide] | 

Continued, compound first:

Row | SMILES | IC50 [1] | melting point | IC50 [2] | other results
9 | O=C(O)c1ccc(NC(=S)NC(=O)c2ccc3c(c2)C(=O)c2ccccc2C3=O)cc1 [Compound 5a, (3-(9,10-Dioxo-9,10-Dihydroanthracene-2-Carbonyl) Thioureido) Benzoic Acid] | 217 nM | 221 to 221.4 °C | 113 nM | 
10 | O=C(O)c1cccc(NC(=S)NC(=O)c2ccc3c(c2)C(=O)c2ccccc2C3=O)c1 [Compound 5b, 3-(3-(9,10-Dioxo-9,10-Dihydroanthracene-2-Carbonyl) Thioureido) Benzoic Acid] | 254 nM |  | 135 nM | 
11 | NS(=O)(=O)c1ccc(NC(=S)NC(=O)c2ccc3c(c2)C(=O)c2ccccc2C3=O)cc1 [Compound 5c, 9,10-Dioxo-N-((4-Sulfamoylphenyl)Carbamothioyl)-9,10-Dihydroanthracene-2-Carboxamide] | 40.6 nM |  | 41.6 nM | IC50 [3, 12]: 46.2 ± 3.93 µM; IC50 [3, 13]: 48.1 ± 3.23 µM; IC50 [4, 14]: 69.4 ± 5.16 µM; IC50 [4, 15]: 61.4 ± 5.75 µM; mitochondrial membrane potential [5]: reduction in mitochondrial membrane potential; mitochondrial membrane potential [6]: reduction in mitochondrial membrane potential; mitochondrial membrane potential [7]: reduction in mitochondrial membrane potential; IC50 [8, 16]: 28.1 ± 1.72 µM; IC50 [8, 17]: 34.3 ± 2.85 µM; Cell Viability (Lower Left %) [9]: 70.12 ± 2.84%; Total Apoptosis (L.R% + U.R%) [9]: 25.06 ± 2.01%; Cell Viability (Lower Left %) [10]: 68.88 ± 2.30%; Total Apoptosis (L.R% + U.R%) [10]: 27.26 ± 1.76%; Cell Viability (Lower Left %) [11]: 51.77 ± 2.80%; Total Apoptosis (L.R% + U.R%) [11]: 43.37 ± 3.92%
12 | NS(=O)(=O)c1cccc(NC(=S)NC(=O)c2ccc3c(c2)C(=O)c2ccccc2C3=O)c1 [Compound 5d, 9,10-Dioxo-N-((3-Sulfamoylphenyl)Carbamothioyl)-9,10-Dihydroanthracene-2-Carboxamide] | 73.6 nM | 146.5 to 146.8 °C | 64.3 nM | 
13 | CC(=O)c1ccc(NC(=S)NC(=O)c2ccc3c(c2)C(=O)c2ccccc2C3=O)cc1 [Compound 5e, ((4-Acetylphenyl)Carbamothioyl)-9,10-Dioxo-9,10-Dihydroanthracene-2-Carboxamide] | 275 nM | 215 to 215.9 °C | 132 nM | 
14 | COC(=O)c1ccc(NC(=S)NC(=O)c2ccc3c(c2)C(=O)c2ccccc2C3=O)cc1 [Compound 5f, Methyl 4-(3-(9,10-Dioxo-9,10-Dihydroanthracene-2-Carbonyl)Thioureido)Benzoate] | 190 nM | 211 to 211.4 °C | 147 nM | 
15 | COC(=O)c1cccc(NC(=S)NC(=O)c2ccc3c(c2)C(=O)c2ccccc2C3=O)c1 [Compound 5g, Methyl 3-(3-(9,10-Dioxo-9,10-Dihydroanthracene-2-Carbonyl)Thioureido)Benzoate] | 251 nM | 187 to 187.3 °C | 238 nM | 
16 | NS(=O)(=O)c1ccc(CCNC(=S)NC(=O)c2ccc3c(c2)C(=O)c2ccccc2C3=O)cc1 [Compound 5h, 9,10-Mioxo-N-((4-Sulfamoylphenethyl)Carbamothioyl)-9,10-Dihydroanthracene-2-Carboxamide] | 46.2 nM | 323 to 323.5 °C | 21.2 nM | IC50 [3, 12]: 81.2 ± 7.34 µM; IC50 [3, 13]: 75.2 ± 6.81 µM; IC50 [4, 14]: 80.4 ± 7.14 µM; IC50 [4, 15]: 81.4 ± 7.03 µM; IC50 [8, 16]: 57.4 ± 5.5 µM; IC50 [8, 17]: 63.8 ± 5.57 µM
17 | CNS(=O)(=O)c1ccc(NC(=S)NC(=O)c2ccc3c(c2)C(=O)c2ccccc2C3=O)cc1 [Compound 5i, ((4-(N-Methylsulfamoyl)Phenyl)Carbamothioyl)-9,10-Anthraquinone-2-Carboxamide] | 100 nM | 207 to 207.6 °C | 76.7 nM | 
18 | O=C(NC(=S)Nc1ccc(S(=O)(=O)Nc2ncccn2)cc1)c1ccc2c(c1)C(=O)c1ccccc1C2=O [Compound 5j] | 77.7 nM | 237 to 237.2 °C | 87.7 nM | 
19 | CC(=O)NS(=O)(=O)c1ccc(NC(=S)NC(=O)c2ccc3c(c2)C(=O)c2ccccc2C3=O)cc1 [Compound 5k, ((4-(N-Acetylsulfamoyl)Phenyl)Carbamothioyl)-9,10-Dioxo-9,10-Dihydroanthracene-2-Carboxamide] | 227 nM | 192 to 192.4 °C | 156 nM | 
20 | O=C(NC(=S)Nc1ccc(S(=O)(=O)Nc2nccs2)cc1)c1ccc2c(c1)C(=O)c1ccccc1C2=O [Compound 5m, 9,10-Dioxo-N-((4-(N-(Thiazol-2-yl)Sulfamoyl)Phenyl)Carbamothioyl)-9,10-Dihydroanthracene-2-Carboxamide] | 71 nM |  | 95.9 nM | 
21 | N=C(N)NS(=O)(=O)c1ccc(NC(=S)NC(=O)c2ccc3c(c2)C(=O)c2ccccc2C3=O)cc1 [Compound 5n, ((4-(N-Carbamimidoylsulfamoyl)Phenyl)Carbamothioyl)-9,10-Dioxo-9,10-Dihydroanthracene-2-Carboxamide] | 103 nM | 206 to 206.5 °C | 98.4 nM | 

From paper PMC10969960, “Novel Anthraquinone-Based Benzenesulfonamide Derivatives and Their Analogues as Potent Human Carbonic Anhydrase Inhibitors with Antitumor Activity: Synthesis, Biological Evaluation, and In Silico Analysis” (International Journal of Molecular Sciences, 2024)
